Experimental data reported in the NIST ThermoML archive (doi:10.1021/je700404u).
Numbers after ± are expanded uncertainties.

Assays:
[1] = 293.15 K; 101.33 kPa; Liquid
[2] = refractive index (Na D-line) (dimensionless); conditions: 293.15 K; 101.33 kPa; Liquid; Standard Abbe refractometry

mass density [1]	refractive index [2]	Compound
929 ± 1 kg/m3	1.4065 ± 0.0007	CCOCCO [2-ethoxyethan-1-ol]
789 ± 1 kg/m3	1.3619 ± 0.0007	CCO [ethanol]
791 ± 1 kg/m3	1.3287 ± 0.0007	CO [methanol]

Compound	mass density [1]	refractive index [2]
CC(C)=O [acetone]	790 ± 1 kg/m3	1.359 ± 0.0007
